What all share (type): in vivo
The subject of assay [1] is Long Evans rats. The assay can be described thus: Spontaneous locomotor activity. The note with it: all doses tested (3.75, 7.5, 15 mg/kg), any time during the test sessions. On the procedure:
(§1) In Vivo Studies. Effect on Locomotor Activity. These studies were performed using Long Evans rats using standard protocols. Locomotor activity chambers measuring 43×43×30 cm (l×w×h) were used for the locomotor activity experiments. Each chamber was equipped with eight photo-emitters positioned along the length of the chamber 6 cm above the floor, each paired directly opposite a photocell. Locomotor activity counts were registered when adjacent beams were broken consecutively. Before receiving any drug, the animals (n=96) were placed in locomotor activity chambers for habituation, for 2 hours per day for 3 consecutive days. Based on the locomotor activity score obtained during the third habituation session, animals were assigned into one of […]. […] For the 113 alone experiments, each of the four groups received one of 4 doses of 113 (0, 3.75, 7.5 or 15 mg/kg) 10 minutes prior to placement in the activity chambers. For the 113 cocaine interaction experiments, each of 4 groups were injected with one of the 4 doses of the compound (0, 3.75, 7.5 or 15 mg/kg) 10 minutes before receiving 10 mg/kg of cocaine as the second injection. […] The locomotor counts in the 113 alone and 113/cocaine experiments were analyzed using two separate mixed-design ANOVAs with 113 dose (between-groups) and 5-min bins (repeated measures) as factors. […]

In assay [2] the test system is Long Evans rats. The assay can be described thus: Cocaine self-administration under PR schedule of reinforcement. On the procedure: In Vivo Studies. Effect on Cocaine-Self administration. These studies were performed using Long Evans rats using standard protocols (Quinlan M. G. et al. Psychopharmacol. 2004, 175, 53-59; Ranaldi, R. et al. Behav. Pharmacol. 2011, 22, 347-353). Cocaine self-administration sessions were conducted in sixteen operant chambers; eight measuring 30×22×27 cm (l×w×h) and the other eight measuring 26×26×30 cm (l×w×h). Each chamber was situated inside a sound-attenuating box and was equipped with two retractable levers, a white light above each lever, and a tether. Polyethylene tubing, covered by the tether, connected the animal, through a fluid swivel, to a syringe in a syringe pump (Razel, 3.33 rpm). […] Each animal was tested with one dose of the D3 antagonist, randomly determined, at as many of the three cocaine doses as possible. After a particular test the animal's cocaine dose was changed to another one (randomly determined) and its baseline BP on the new dose was established. BP during the test session was expressed as the percentage of the average BP obtained during the last three baseline sessions. Percentage of baseline BP and final ratio (i.e. the number of lever presses required for the BP infusion) were analyzed using separate two-way analyses of variance (ANOVAs) with dose of 113 and dose of cocaine as between-groups factors. […]

In assay [3] the test system is Rats. The assay can be described thus: Cue-induced reinstatement of cocaine-seeking. The note with it: ip injection of one of 3 doses 20 minutes before 1-h reinstatement session. The protocol: In Vivo Studies. Effect on Reinstatement. Rats were trained to self-administer cocaine (1.0 mg/kg/injection) under a FR1 schedule of reinforcement in daily 3-h sessions and, after stable responding was established (as described above) the schedule was changed to FR3. After stable responding under the FR3 schedule was established, extinction training began. Stable responding was defined as follows: 12 consecutive sessions in which total rewards per session was greater than 20 and in which total rewards per session for the last three sessions was within ±10% of the mean of the three sessions. […] After extinction criteria were met each rat was tested in one 1-h reinstatement session; each rat received an ip injection of vehicle or one of 3 doses of the test compound and 20 minutes later was placed in the operant chamber. At the start of the reinstatement session the cocaine-associated cues (light on for 20 s and pump on for 4.5 s) were presented twice, once at 25 sec and again at 2 min into the session. Presses on the active lever illuminated the light and activated the pump.

Assay [4] deals with Long Evans rats. The assay can be described thus: Cocaine-induced locomotor activity. The note with it: 3.75, 7.5 or 15 mg/kg 10 minutes before 10 mg/kg of cocaine; p<0.05. On the procedure:
as §1

In assay [5] the test system is Long Evans rats. The assay can be described thus: Food self-administration under PR schedule of reinforcement. The note with it: 3.75 mg dose vs 0, t(7)=0.43, p=0.66. The protocol: In Vivo Studies. Effect on Food-Self administration. These studies were performed using Long Evans rats using standard protocols. Training and testing took place in ventilated and sound-attenuated operant chambers measuring 30×21×18 cm. Each chamber contained two levers, one light above each of the levers, and a food trough. Each lever was positioned 2.5 cm from the rod floor and the food trough (measuring 5×5 cm) was centered between the two levers. A different set of animals (n=8) was trained to press a lever reinforced by food under a FR1 schedule of reinforcement. […] Percentage of baseline BPs for food self-administration was analyzed using a dependent measures t-test comparing the 0 and 3.75 mg doses of 113.

We go through one compound from patent US9969743B2, “Urea and amide derivatives of aminoalkylpiperazines and use thereof” (Southern Research Institute, priority 2012, dated 2018).

As for `CC(C)(C)c1nc(N2CCN(CCCCNC(=O)c3cn4ccccc4n3)CC2)cc(C(F)(F)F)n1` [Compound 113, N-(4-(4-(2-(tert-Butyl)-6-(trifluoromethyl)pyrimidin-4-yl)piperazin-1-yl)butyl)imidazo[1,2-a]pyridine-2-carboxamide], the “spontaneous locomotor activity, overall” value in assay [1] is on record as “none of the doses tested produced significant effects on spontaneous locomotor activity”. In addition, in assay [2] (3.75, 7.5 and 15 mg/kg intraperitoneally 10 minutes prior to session, cocaine 0.375, 0.75 or […]), the “percentage of baseline BP for cocaine under PR schedule, dose relation” value is “dose-related reduction in the percentage of baseline BPs”. For the same compound, in assay [2] (3.75, 7.5 or 15 mg of 113, ps<0.05), the “percentage of baseline BPs for cocaine compared to vehicle (Tukey post hoc)” value is given as “significant reductions in the percentage of baseline BPs”. For the same compound, in assay [3], the “cue-induced reinstatement (presses on the active lever)” value was “strongly reduced in a dose-related fashion”. Moreover, the cocaine-induced locomotor activity result in assay [4] was “significantly reduce cocaine-induced locomotor activity in a dose-related fashion”. Also, in assay [5], the “percentage of baseline BP for food self-administration” value was “did not affect food self-administration”.
